Laboratory results: patent US6737383B1, “Herbicidal oxadiazolidines” (priority 1999, dated 2004)

Tests used:
[1] = system: giant foxtail; experiment: Test B pre/postemergence giant foxtail; format: in vivo, Setaria faberii
In short: (§1)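 Herbicidal effect was estimated by eye on a ten-point control scale after plants spent twelve to sixteen days in a greenhouse following soil or foliar treatment. Foliar sprays targeted plants at one to four leaves; all doses were formulated in a non-phytotoxic solvent with surfactant.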

[2] = system: surinam grass; experiment: Test B pre/postemergence surinam grass; format: in vivo, Brachiaria decumbens
In short: as §1

[3] = system: bedstraw; experiment: Test B pre/postemergence bedstraw; format: in vivo, Galium aparine
In short: as §1

[4] = system: velvetleaf; experiment: Test B pre/postemergence velvetleaf; format: in vivo, Abutilon theophrasti
In short: as §1

[5] = system: crabgrass; experiment: Test B pre/postemergence crabgrass; format: in vivo, Digitaria sanguinalis
In short: as §1

[6] = system: duck salad; experiment: Test B flood test duck salad; format: in vivo, Heteranthera limosa
In short: (§2)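 Flood test on plants grown to the 2-leaf stage; treated plants kept in greenhouse twelve to sixteen days, then visually rated against controls on a 0 (no effect) to 10 (complete control) scale.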

[7] = system: wheat; experiment: Test B pre/postemergence wheat; format: in vivo, Triticum aestivum
In short: as §1

[8] = system: smallflower flatsedge; experiment: Test B flood test smallflower flatsedge; format: in vivo, Cyperus difformis
In short: as §2

[9] = system: cocklebur; experiment: Test B pre/postemergence cocklebur; format: in vivo, Xanthium strumarium
In short: as §1

[10] = system: blackgrass; experiment: Test B pre/postemergence blackgrass; format: in vivo, Alopecurus myosuroides
In short: as §1

[11] = system: bamyardgrass; experiment: Test B flood test barnyardgrass; format: in vivo, Echinochloa crus-galli
In short: as §2

[12] = system: rice; experiment: Test B flood test rice; format: in vivo, Oryza sativa
In short: as §2

[13] = system: rape; experiment: Test B pre/postemergence rape; format: in vivo, Brassica napus
In short: as §1

[14] = system: soybean; experiment: Test B pre/postemergence soybean; format: in vivo, Glycine max
In short: as §1

[15] = system: purple nutsedge; experiment: Test B pre/postemergence purple nutsedge; format: in vivo, Cyperus rotundus
In short: as §1

[16] = system: sugar beet; experiment: Test B pre/postemergence sugar beet; format: in vivo, Beta vulgaris
In short: as §1

[17] = system: corn; experiment: Test B pre/postemergence corn; format: in vivo, Zea mays
In short: as §1

[18] = Postemergence, Rate 62 g/ha, scale 0 to 10, 0 is no effect, 10 is complete control
[19] = Postemergence, Rate 250 g/ha, scale 0 to 10, 0 no effect, 10 complete control
[20] = Preemergence, Rate 62 g/ha, scale 0 to 10 (0 no effect, 10 complete control)
[21] = Preemergence, Rate 125 g/ha, scale 0 to 10 (0 no effect, 10 complete control)
[22] = Preemergence, Rate 250 g/ha, scale of 0 to 10 where 0 is no effect and 10 is complete control
[23] = Preemergence, Rate 500 g/ha, scale 0 (no effect) to 10 (complete control)
[24] = Rate 125 g/ha, Postemergence, scale 0 to 10, 0 no effect, 10 complete control
[25] = Rate 500 g/ha, Postemergence, scale 0 to 10, 0 no effect, 10 complete control
[26] = Rate 125 g/ha, Postemergence section (flood test species), scale 0 to 10, 0 no effect, 10 complete control
[27] = Rate 250 g/ha, headed Pre-emergence (flood test species), scale 0 to 10 (0 no effect, 10 complete control)
[28] = Rate 500 g/ha, headed Pre-emergence (flood test species), scale 0 to 10 (0 no effect, 10 complete control)
[29] = Rate 500 g/ha, listed under Postemergence (flood test species), scale 0 to 10, 0 no effect, 10 complete control
[30] = Rate 1000 g/ha, Pre-emergence (as headed), scale 0 to 10
[31] = Rate 2000 g/ha, Pre-emergence (as headed), scale 0 to 10
[32] = flood test, listed under Postemergence, Rate 250 g/ha, scale 0 to 10, 0 no effect, 10 complete control

Structure (SMILES): CC(C)N(C(=O)n1oc(=O)n(Cc2cccs2)c1=O)c1ccc(F)cc1F [Compound 86]
- Giant foxtail plant response rating [1, 18]: 0
- Giant foxtail plant response rating [1, 19]: 3
- Giant foxtail plant response rating [1, 20]: 8
- Plant response rating, Giant foxtail [1, 21]: 9
- Plant response rating, Giant foxtail [1, 22]: 10
- Giant foxtail plant response rating [1, 23]: 10
- Giant foxtail plant response rating [1, 24]: 2
- Giant foxtail plant response rating [1, 25]: 5
- B. signalgrass plant response rating [2, 18]: 0
- B. signalgrass plant response rating [2, 19]: 0
- B. signalgrass plant response rating [2, 20]: 0
- Plant response rating, B. signalgrass [2, 21]: 2
- Plant response rating, B. signalgrass [2, 22]: 4
- B. signalgrass plant response rating [2, 23]: 7
- B. signalgrass plant response rating [2, 24]: 0
- B. signalgrass plant response rating ([2]; Rate 500 g/ha, Postemergence, scale of 0 to 10 where 0 is no effect and 10 is complete control): 0
- Bedstraw plant response rating [3, 18]: 2
- Bedstraw plant response rating [3, 19]: 6
- Bedstraw plant response rating [3, 20]: 0
- Plant response rating, Bedstraw [3, 21]: 0
- Plant response rating, Bedstraw [3, 22]: 0
- Bedstraw plant response rating [3, 23]: 0
- Bedstraw plant response rating [3, 24]: 4
- Bedstraw plant response rating [3, 25]: 8
- Velvetleaf plant response rating [4, 18]: 0
- Velvetleaf plant response rating [4, 19]: 0
- Velvetleaf plant response rating [4, 20]: 0
- Plant response rating, Velvetleaf [4, 21]: 0
- Plant response rating, Velvetleaf [4, 22]: 3
- Velvetleaf plant response rating [4, 23]: 5
- Velvetleaf plant response rating [4, 24]: 0
- Velvetleaf plant response rating [4, 25]: 2
- Crabgrass plant response rating [5, 18]: 2
- Crabgrass plant response rating [5, 19]: 5
- Crabgrass plant response rating [5, 20]: 5
- Plant response rating, Crabgrass [5, 21]: 8
- Plant response rating, Crabgrass [5, 22]: 10
- Crabgrass plant response rating [5, 23]: 10
- Crabgrass plant response rating [5, 24]: 3
- Crabgrass plant response rating [5, 25]: 9
- Ducksalad plant response rating [6, 18]: 0
- Ducksalad plant response rating [6, 26]: 0
- Ducksalad plant response rating [6, 27]: 0
- Plant response rating, Ducksalad [6, 28]: 0
- Ducksalad plant response rating [6, 29]: 0
- Ducksalad plant response rating [6, 30]: 0
- Ducksalad plant response rating [6, 31]: 0
- Ducksalad plant response rating [6, 32]: 0
- Wheat plant response rating [7, 18]: 0
- Wheat plant response rating [7, 19]: 0
- Wheat plant response rating [7, 20]: 0
- Plant response rating, Wheat [7, 21]: 0
- Plant response rating, Wheat [7, 22]: 0
- Wheat plant response rating [7, 23]: 0
- Wheat plant response rating [7, 24]: 0
- Wheat plant response rating [7, 25]: 0
- S. Flatsedge plant response rating [8, 18]: 0
- S. Flatsedge plant response rating ([8]; Pre-emergence, Rate 1000 g/ha, scale 0 to 10 (0 no effect, 10 complete control)): 0
- S. Flatsedge plant response rating [8, 26]: 0
- S. Flatsedge plant response rating [8, 27]: 0
- Plant response rating, S. Flatsedge [8, 28]: 0
- S. Flatsedge plant response rating [8, 29]: 0
- S. Flatsedge plant response rating [8, 31]: 0
- S. Flatsedge plant response rating [8, 32]: 0
- Cocklebur plant response rating [9, 18]: 0
- Cocklebur plant response rating [9, 19]: 2
- Cocklebur plant response rating [9, 20]: 0
- Plant response rating, Cocklebur [9, 21]: 0
- Plant response rating, Cocklebur [9, 22]: 0
- Cocklebur plant response rating [9, 23]: 0
- Cocklebur plant response rating [9, 24]: 1
- Cocklebur plant response rating [9, 25]: 2
- Blackgrass plant response rating [10, 18]: 0
- Blackgrass plant response rating [10, 19]: 1
- Blackgrass plant response rating [10, 20]: 2
- Plant response rating, Blackgrass [10, 21]: 3
- Plant response rating, Blackgrass [10, 22]: 5
- Blackgrass plant response rating [10, 23]: 8
- Blackgrass plant response rating [10, 24]: 0
- Blackgrass plant response rating [10, 25]: 3
- Barnyardgrass plant response rating [11, 18]: 0
- Barnyardgrass plant response rating [11, 26]: 0
- Barnyardgrass plant response rating [11, 27]: 0
- Plant response rating, Barnyardgrass [11, 28]: 0
- Barnyardgrass plant response rating [11, 29]: 0
- Barnyardgrass plant response rating [11, 30]: 0
- Barnyardgrass plant response rating ([11]; Rate 2000 g/ha, Pre-emergence (as headed), scale 0 to 10, 0 no effect, 10 complete control): 0
- Barnyardgrass plant response rating [11, 32]: 0
- Rice plant response rating [12, 18]: 0
- Rice plant response rating [12, 26]: 0
- Rice plant response rating [12, 27]: 0
- Plant response rating, Rice [12, 28]: 0
- Rice plant response rating [12, 29]: 0
- Rice plant response rating [12, 30]: 0
- Rice plant response rating [12, 31]: 8
- Rice plant response rating [12, 32]: 0
- Rape plant response rating [13, 18]: 0
- Rape plant response rating [13, 19]: 2
- Rape plant response rating [13, 20]: 0
- Plant response rating, Rape [13, 21]: 0
- Plant response rating, Rape [13, 22]: 0
- Rape plant response rating [13, 23]: 4
- Rape plant response rating [13, 24]: 0
- Rape plant response rating [13, 25]: 4
- Soybean plant response rating [14, 18]: 2
- Soybean plant response rating [14, 19]: 2
- Soybean plant response rating [14, 20]: 0
- Plant response rating, Soybean [14, 21]: 0
- Plant response rating, Soybean [14, 22]: 0
- Soybean plant response rating [14, 23]: 0
- Soybean plant response rating [14, 24]: 2
- Soybean plant response rating [14, 25]: 3
- Nutsedge plant response rating [15, 18]: 0
- Nutsedge plant response rating [15, 19]: 0
- Nutsedge plant response rating [15, 20]: 0
- Plant response rating, Nutsedge [15, 21]: 0
- Plant response rating, Nutsedge [15, 22]: 0
- Nutsedge plant response rating [15, 23]: 0
- Nutsedge plant response rating [15, 24]: 0
- Nutsedge plant response rating [15, 25]: 0
- Sugarbeets plant response rating [16, 18]: 0
- Sugarbeets plant response rating [16, 19]: 3
- Sugarbeets plant response rating [16, 20]: 0
- Plant response rating, Sugarbeets [16, 21]: 0
- Plant response rating, Sugarbeets [16, 22]: 3
- Sugarbeets plant response rating [16, 23]: 3
- Sugarbeets plant response rating [16, 24]: 3
- Sugarbeets plant response rating [16, 25]: 6
- Corn plant response rating [17, 18]: 0
- Corn plant response rating [17, 19]: 00
- Corn plant response rating [17, 20]: 0
- Plant response rating, Corn [17, 21]: 0
- Plant response rating, Corn [17, 22]: 0
- Corn plant response rating [17, 23]: 0
- Corn plant response rating [17, 24]: 0
- Corn plant response rating [17, 25]: 0
